Measured values as given in US7888328B2, “Oral formulations of cladribine” (Ares Trading S.A., priority 2003, dated 2011).
Converted amounts (≈) assume the structure as drawn.

Experiments:
[1] = Phase solubility study of cladribine in HPβCD solutions; format: physicochemical; conditions: aqueous hydroxypropyl-β-cyclodextrin (HPβCD) solution, aqueous with cosolvent or surfactant or cyclodextrin, thermodynamic from solid; with about 0.14 mole of HPβCD; complexation conditions of EXAMPLE 2; read-out: cladribine maintained dissolved (phase solubility)
Method: Generally, the complexation is conducted with heating, for example at about 45 to about 60° C. for a significant period of time, e.g., at least 6-9 hours; it is believed that even better results can be obtained by heating at up to about 80° C. for up to 24 hours. Excess precipitated cladribine is then removed and the cladribine concentration is subsequently measured. This concentration represents the amount of cladribine solubilized for a given amorphous cyclodextrin concentration. […] Consequently, the data points correspond to the amount of cladribine dissolved in aqueous HPβCD or other amorphous cyclodextrin under the selected conditions; when later lyophilized, the solution yields a complex cladribine-cyclodextrin complex which is an intimate amorphous admixture of (a) an amorphous inclusion complex of cladribine with an amorphous cyclodextrin and (b) amorphous free cladribine associated with amorphous cyclodextrin as a non-inclusion complex. If equilibrium conditions are reached during the complexation, the amorphous cladribine-cyclodextrin complex will be saturated with cladribine.
A phase solubility study can be carried out as follows. […] The excess, undissolved cladribine is removed by filtration. […] This process is repeated with different known concentrations of HPβCD until several data points are obtained. […]

[2] = Clinical study, relative bioavailability: plasma cladribine after oral formulations vs subcutaneous administration; format: in vivo, human (patients with MS); conditions: human, sc, 3.0 mg subcutaneous, single dose, n = 12
Method: This study was a 2 center, open-label, randomized, 4-way crossover single dose study using twelve patients with MS. Patients received randomly three different fixed oral doses (3.0 mg) and a fixed subcutaneous dose of 3.0 mg. The four treatment days were separated by a drug-free interval of at least 5 days. In each treatment period, blood samples were collected over a 24-hour period for evaluation of plasma cladribine.
The plasma concentration of cladribine was measured by a HPLC/MS/MS method. […] The limit of quantification was 100 pg/ml. Analysis of samples was carried out in 16 runs.
576 clinical plasma samples were analyzed and concentration values of cladribine were determined.

[3] = Clinical study, dose response and absolute bioavailability: plasma cladribine after oral doses vs intravenous infusion; format: in vivo, human (patients with MS); conditions: n = 26; for AUC(0-inf) / AUC(0-t) / Cmax / Tmax / half-life: human, plasma; for AUC(0-inf) / AUC(0-t) / Cmax: Geom Mean; for Tmax / half-life: Mean ± SD
From the text: The objective of this study was to assess the systemic availability of cladribine after oral administration in two different fixed oral doses, in comparison with one fixed intravenous administration (reference formulation) in patients with MS (multiple sclerosis), and to evaluate the safety and tolerability of cladribine in this population.
This study was a 3 center, open-label, randomized, 3-way crossover single dose study using twenty-six patients with MS. […] The three treatment days were separated by a drug-free interval of at least 5 days. In each treatment period blood samples were collected over a 24-hour period for evaluation of plasma cladribine.
The plasma concentrations of cladribine were measured by a HPLC/MS/MS method. […] The limit of quantification was 100 pg/ml. Analysis of samples was carried out in 16 runs. Except the first run (which had to be rejected because of equipment failure), all other runs could be accepted. No calibrator had to be excluded from fitting of the calibration curve and accuracy of each quality control sample met the GLP requirements.
858 clinical plasma samples were analyzed and concentration values of cladribine were determined. The results were compiled and are summarized in the tables below [TABLES VII through X]. In these tables, the following definitions are applicable: Tmax is the time to reach maximum concentration in the plasma; T1/2 is the half-life of cladribine in the plasma; Cmax is the maximum concentration of cladribine in the plasma; AUCinf is the area under the curve for the measured data from zero extrapolated to infinity; AUCt is the area under the curve for the measured data (from zero to the last time point); Geom Mean is the geometric mean; CV is the coefficient of variation (relative standard deviation); LL is the lower limit; UL is the upper limit; σ^2 is the mean variance; σB^2 is the mean variance between subjects; σW^2 is the mean variance within subjects; CVT is the total coefficient of variation; and CVW is the coefficient of variation within subjects.

[4] = Oral Administration 10.0 mg vs 3.0 mg IV, dose normalized
[5] = Oral Administration 30.0 mg vs 3.0 mg IV, dose normalized
[6] = Oral Administration 3.0 mg (Batch N0120 3.0 mg tablets)
[7] = Oral Administration 10.0 mg (Batch N0126 10.0 mg tablets)

In the case of Nc1nc(Cl)nc2c1ncn2[C@H]1C[C@H](O)[C@@H](CO)O1 [Cladribine, 2-chloro-2′-deoxyadenosine], the solubility [1] is reported as about 49 mM (≈ 14 mg/mL), the AUC(0-inf) ([2]; Geom Mean) is reported as 57.3 ng·h/mL and the AUC(0-t) ([2]; Geom Mean) is reported as 54.7 ng·h/mL. The Cmax ([2]; Geom Mean) was 23.2 ng/mL, the Tmax ([2]; Mean ± SD) was 0.313 ± 0.113 h and the half-life ([2]; Mean ± SD) was 6.69 ± 2.01 h. The “Ratio of Oral to I.V. AUCinf” value [3, 4] was 39.1, the “Ratio of Oral to I.V. AUCt” value [3, 4] was 39.4 and the “Ratio of Oral to I.V. AUCinf” value [3, 5] was 34.5. The “Ratio of Oral to I.V. AUCt” value [3, 5] was 34.0, the “CVT (total coefficient of variation) of AUCinf” value ([3]; dose-adjusted PK parameter) was 29.2% and the “CVT (total coefficient of variation) of AUCt” value ([3]; dose-adjusted PK parameter) was 29.8%. For the same compound, the “CVT (total coefficient of variation) of Cmax” value ([3]; dose-adjusted PK parameter) was 43.0%, the “CVW (coefficient of variation within subjects) of AUCinf” value ([3]; dose-adjusted PK parameter) was 18.3% and the “CVW (coefficient of variation within subjects) of AUCt” value ([3]; dose-adjusted PK parameter) was 19.1%. The “CVW (coefficient of variation within subjects) of Cmax” value ([3]; dose-adjusted PK parameter) was 37.5%, the AUC(0-inf) ([3]; 3.0 mg IV infusion (1 hour)) was 58.5 ng·h/mL and the AUC(0-t) ([3]; 3.0 mg IV infusion (1 hour)) was 56.4 ng·h/mL. For the same compound, the Cmax ([3]; 3.0 mg IV infusion (1 hour)) was 21.4 ng/mL, the Tmax ([3]; 3.0 mg IV infusion (1 hour)) was 0.817 ± 0.397 h and the half-life ([3]; 3.0 mg IV infusion (1 hour)) was 6.5 ± 1.27 h. It also gave an AUC(0-inf) [3, 6] of 20.2 ng·h/mL, an AUC(0-t) [3, 6] of 19.2 ng·h/mL and a Cmax [3, 6] of 5.61 ng/mL. The Tmax [3, 6] was 0.548 ± 0.3 h, the half-life [3, 6] was 5.85 ± 1.18 h and the AUC(0-inf) [3, 7] was 76.7 ng·h/mL. It also gave an AUC(0-t) [3, 7] of 74.5 ng·h/mL, a Cmax [3, 7] of 21.2 ng/mL and a Tmax [3, 7] of 0.558 ± 0.204 h. The half-life [3, 7] was 5.6 ± 0.75 h, the “Ratio 10.0 mg/3.0 mg AUCinf” value ([3]; oral doses, dose normalized) was 113.3 and the “Ratio 10.0 mg/3.0 mg AUCt” value ([3]; oral doses, dose normalized) was 115.8. The “Ratio 10.0 mg/3.0 mg Cmax” value ([3]; oral doses, dose normalized) was 112.6.
